According to US20250353857A1, “COMPOUND ACTIVE AS INHIBITOR OF COLONY STIMULATION FACTOR-1 RECEPTOR (CSF-1 R)” (priority 2022, published 2025):

target: CSF1R (Homo sapiens (Human), UniProt P07333); assay: CSF1R enzymatic inhibitory assay (Invitrogen Z'-LYTE, FRET); assay type: biochemical; settings: Z'-LYTE assay, ATP concentration equal to Km, average of at least 2 titration curves; read-out: CSF1R (IC50);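 further: kinase phosphorylates a tyrosine on a coumarin/fluorescein FRET peptide, a protease cuts peptide left unphosphorylated, inhibition quantified from the donor-to-acceptor emission ratio with excitation at 400 nm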
Sequence (P07333 20-972): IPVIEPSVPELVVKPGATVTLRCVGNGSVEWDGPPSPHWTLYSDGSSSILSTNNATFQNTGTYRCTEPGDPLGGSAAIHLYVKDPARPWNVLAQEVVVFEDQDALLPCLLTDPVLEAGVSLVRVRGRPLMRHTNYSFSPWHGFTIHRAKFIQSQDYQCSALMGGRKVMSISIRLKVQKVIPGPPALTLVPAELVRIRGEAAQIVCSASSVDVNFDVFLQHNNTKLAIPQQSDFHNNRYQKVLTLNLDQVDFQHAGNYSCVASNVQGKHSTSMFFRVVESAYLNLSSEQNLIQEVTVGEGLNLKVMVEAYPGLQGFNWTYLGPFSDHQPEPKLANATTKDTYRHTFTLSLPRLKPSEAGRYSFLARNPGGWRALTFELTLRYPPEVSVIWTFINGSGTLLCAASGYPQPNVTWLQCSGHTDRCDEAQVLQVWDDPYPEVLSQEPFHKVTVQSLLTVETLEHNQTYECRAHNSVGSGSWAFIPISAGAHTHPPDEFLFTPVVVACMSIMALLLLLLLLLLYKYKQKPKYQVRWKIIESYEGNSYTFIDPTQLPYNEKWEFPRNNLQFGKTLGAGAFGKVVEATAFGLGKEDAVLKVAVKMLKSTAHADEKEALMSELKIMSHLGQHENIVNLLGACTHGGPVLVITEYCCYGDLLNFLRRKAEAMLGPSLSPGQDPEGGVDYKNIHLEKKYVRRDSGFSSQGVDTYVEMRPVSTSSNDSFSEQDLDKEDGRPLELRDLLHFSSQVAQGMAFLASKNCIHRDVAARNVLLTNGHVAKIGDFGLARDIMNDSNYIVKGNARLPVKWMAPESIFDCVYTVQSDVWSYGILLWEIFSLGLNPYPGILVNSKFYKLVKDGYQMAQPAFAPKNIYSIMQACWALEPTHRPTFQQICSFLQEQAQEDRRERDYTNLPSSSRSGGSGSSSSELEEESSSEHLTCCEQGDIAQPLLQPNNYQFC

Row | IC50 [nM] | Compound
1 | 707 ± 79 | CN(Cc1ccccc1)c1ncnc2sc(-c3ccc(CO)cc3)cc12 [BAHO-3-107, (4-(4-(Benzyl(methyl)amino)thieno[2,3-d]pyrimidin-6-yl)phenyl)methanol]
2 | > 500 | Cc1cccc(CN(C)c2ccnc3[nH]ccc23)c1 [CJ1_78]
3 | > 1000 | CC(C)N(Cc1ccccc1)c1ncnc2[nH]c(-c3ccc(CO)cc3)nc12 [EH02-21, (4-(6-(Benzyl(isopropyl)amino)-9H-purin-8-yl)phenyl)methanol]
4 | > 50 | CCN(Cc1ccccc1)c1ncnc2[nH]c(-c3ccc(OC)cc3)nc12 [EH-93, N-Benzyl-N-ethyl-8-(4-methoxyphenyl)-9H-purin-6-amine]
5 | 6.2 ± 0.4 | COc1ccc(-c2cc3c(NCc4ccccc4)ncnc3[nH]2)cc1 [JK-356, N-Benzyl-6-(4-methoxyphenyl)-7H-pyrrolo[2,3-d]pyrimidin-4-amine]
6 | > 200 | Oc1ccc(-c2cc3c(NCc4ccccc4)ncnc3[nH]2)cc1 [JK-367, 4-(4-(Benzylamino)-7H-pyrrolo[2,3-d]pyrimidin-6-yl)phenol]
7 | > 1000 | CCOc1ccccc1-c1nc2c(N(C)Cc3ccccc3)ncnc2[nH]1 [JKS01-057, N-Benzyl-8-(2-ethoxyphenyl)-N-methyl-9H-purin-6-amine]
8 | 54 ± 5 | C[C@H](c1ccccc1)N(C)c1ncnc2[nH]c(-c3ccccc3)cc12 [KUL01-093, (R)—N-Methyl-6-phenyl-N-(1-phenylethyl)-7H-pyrrolo[2,3-d]pyrimidin-4-amine]
9 | 3 | OCC(O)(CO)c1ccc(-c2cc3c(N4CCCC4C4CCOCC4)ncnc3[nH]2)cc1 (centres unmarked) [LR-2-052-2]
10 | 3 | OC1(c2ccc(-c3cc4c(N5CCCC5C5CCOCC5)ncnc4[nH]3)cc2)COC1 (centres unmarked) [LR-2-067]
11 | 0.9 ± 0.9 | CN(Cc1cccc(Cl)c1)c1ncnc2[nH]c(-c3ccc(CN4CCOCC4)cc3)cc12 [LR-2-088 (3), N-(3-Chlorobenzyl)-N-methyl-6-(4-(morpholinomethyl)phenyl)-7H-pyrrolo[2,3-d]pyrimidin-4-amine]
12 | 1.4 ± 0.2 | CN(Cc1ccccc1Cl)c1ncnc2[nH]c(-c3ccc(CN4CCOCC4)cc3)cc12 [LR-2-091 (2), N-(2-Chlorobenzyl)-N-methyl-6-(4-(morpholinomethyl)phenyl)-7H-pyrrolo[2,3-d]pyrimidin-4-amine]
13 | 8.7 ± 1.1 | CN(Cc1c(Cl)cccc1Cl)c1ncnc2[nH]c(-c3ccc(CN4CCOCC4)cc3)cc12 [LR-2-094 (2), N-(2,6-Dichlorobenzyl)-N-methyl-6-(4-(morpholinomethyl)phenyl)-7H-pyrrolo[2,3-d]pyrimidin-4-amine]
14 | 2.7 ± 0.4 | CN(Cc1cc(Cl)ccc1Cl)c1ncnc2[nH]c(-c3ccc(CN4CCOCC4)cc3)cc12 [LR-2-123, N-(2,5-Dichlorobenzyl)-N-methyl-6-(4-(morpholinomethyl)phenyl)-7H-pyrrolo[2,3-d]pyrimidin-4-amine]
15 | 0.7 ± 0.1 | COc1ccc(-c2cc3c(N4CCCC4C)ncnc3[nH]2)cc1 (centres unmarked) [MS1-60-134, 6-(4-Methoxyphenyl)-4-(2-methylpyrrolidin-1-yl)-7H-pyrrolo[2,3-d]pyrimidine]
16 | 1.1 ± 0.1 | COc1ccc(-c2cc3c(N4CCCC4)ncnc3[nH]2)cc1 [MS-46-93, 6-(4-Methoxyphenyl)-4-(pyrrolidin-1-yl)-7H-pyrrolo[2,3-d]pyrimidine]
17 | 9.1 ± 1.1 | Cc1ccc(F)c(CN(C)c2ncnc3[nH]c(-c4ccccc4)cc23)c1F [SH-01-126, N-(2,6-Difluoro-3-methylbenzyl)-N-methyl-6-phenyl-7H-pyrrolo[2,3-d]pyrimidin-4-amine]
18 | 9.2 ± 3.3 | CN(Cc1c(F)cccc1F)c1ncnc2[nH]c(-c3ccccc3)cc12 [SH-01-127, N-(2,6-Difluorobenzyl)-N-methyl-6-phenyl-7H-pyrrolo[2,3-d]pyrimidin-4-amine]
19 | 0.8 | Cc1ccc(F)c(CN(C)c2ncnc3[nH]c(-c4ccc(CN5CCOCC5)cc4)cc23)c1F [SH-01-128, N-(2,6-Difluoro-3-methylbenzyl)-N-methyl-6-(4-(morpholinomethyl)phenyl)-7H-pyrrolo[2,3-d]pyrimidin-4-amine]

Row | IC50 [nM] | Compound
20 | 1.2 | CN(Cc1c(F)cccc1F)c1ncnc2[nH]c(-c3ccc(CN4CCOCC4)cc3)cc12 [SH-01-129, N-(2,6-Difluorobenzyl)-N-methyl-6-(4-(morpholinomethyl)phenyl)-7H-pyrrolo[2,3-d]pyrimidin-4-amine]
21 | 2.3 ± 0.2 | CN(Cc1ccccc1F)c1ncnc2[nH]c(-c3ccc(CO)cc3)nc12 [TIA02-130, N-Methyl-N-(2-fluorobenzyl)-8-(4-(hydroxymethyl)phenyl)-9H-purin-6-amine]
22 | 3.5 ± 2.2 | CN(Cc1cccc(F)c1)c1ncnc2[nH]c(-c3ccc(CO)cc3)nc12 [TIA02-132, N-Methyl-N-(3-fluorobenzyl)-8-(4-(hydroxymethyl)phenyl)-9H-purin-6-amine]
23 | 11 ± 3 | CN(Cc1ccccn1)c1ncnc2[nH]c(-c3ccc(CO)cc3)nc12 [TIA02-164, N-Methyl-N-(pyridin-2-ylmethyl)-8-(4-(hydroxymethyl)phenyl)-9H-purin-6-amine]
24 | 12 ± 1 | Cc1ccc(CN(C)c2ncnc3[nH]c(-c4ccc(CO)cc4)nc23)cc1 [TIA02-174, N-Methyl-N-(4-methylbenzyl)-8-(4-(hydroxymethyl)phenyl)-9H-purin-6-amine]
25 | 2.7 ± 0.1 | COc1cccc(CN(C)c2ncnc3[nH]c(-c4ccc(CO)cc4)nc23)c1 [TIA03-014, N-(3-Methoxybenzyl)-N-methyl-8-(4-(hydroxymethyl)phenyl)-9H-purin-6-amine]
26 | 3 ± 0.6 | CN(Cc1cccs1)c1ncnc2[nH]c(-c3ccc(CO)cc3)nc12 [TIA03-066, N-Methyl-N-(thiophen-2-ylmethyl)-8-(4-(hydroxymethyl)phenyl)-9H-purin-6-amine]
27 | 61 ± 3 | COc1ccc(CN(C)c2ncnc3[nH]c(-c4ccc(CO)cc4)nc23)cc1 [TIA03-078, N-(4-Methoxybenzyl)-N-methyl-8-(4-(hydroxymethyl)phenyl)-9H-purin-6-amine]
28 | 5.7 ± 0.3 | COc1ccc(CN(C)c2ncnc3[nH]c(-c4ccc(CO)cc4)nc23)cc1OC [TIA03-080, N-(3,4-Dimethoxybenzyl)-N-methyl-8-(4-(hydroxymethyl)phenyl)-9H-purin-6-amine]
29 | 11 ± 2 | CN(Cc1cccc(C(F)(F)F)c1)c1ncnc2[nH]c(-c3ccc(CO)cc3)nc12 [TIA03-108, N-Methyl-N-(3-trifluoromethylbenzyl)-8-(4-(hydroxymethyl)phenyl)-9H-purin-6-amine]
30 | 1.8 | Cc1ccccc1CN(C)c1ncnc2[nH]c(-c3ccc(CO)cc3)nc12 [TIA03-136, N-Methyl-N-(2-methylbenzyl)-8-(4-(hydroxymethyl)phenyl)-9H-purin-6-amine]
31 | 0.7 ± 0.2 | CN(CC1CCCCC1)c1ncnc2[nH]c(C3=CCCCC3)nc12 [TIA03-186, 8-(Cyclohex-1-en-1-yl)-N-(cyclohexylmethyl)-N-methyl-9H-purin-6-amine]
32 | 130 ± 12 | CN(CC1CCN(Cc2ccccc2)CC1)c1ncnc2[nH]c(-c3ccc(CO)cc3)nc12 [TIA04-053, N-Methyl-N-(1-benzylpiperidin-4-ylmethyl)-8-(4-(hydroxymethyl)phenyl)-9H-purin-6-amine]
33 | 85 | NC1NC=Nc2[nH]c(-c3ccc(CO)cc3)cc21 (centres unmarked) [TIA05-102]
34 | 108 ± 7 | CN(Cc1ccccc1)c1ncnc2[nH]cnc12 [TIA008, N-Benzyl-N-methyl-9H-purin-6-amine]
35 | 0.7 ± 0.1 | CN(Cc1ccccc1)c1ncnc2[nH]c(-c3ccccc3)nc12 [TIA072, N-Benzyl-N-methyl-8-phenyl-9H-purin-6-amine]
36 | 3.4 ± 0.2 | CN(Cc1ccccc1)c1ncnc2[nH]c(-c3ccccc3O)nc12 [TIA073, 2-(6-(Benzyl(methyl)amino)-9H-purin-8-yl)phenol]
37 | 43 ± 6 | OCc1ccc(-c2nc3c(NCc4ccccc4)ncnc3[nH]2)cc1 [TIA098, (4-(6-(Benzylamino)-9H-purin-8-yl)phenyl)methanol]
38 | 85 ± 10 | c1ccc(CNc2ncnc3[nH]c(-c4ccccc4)nc23)cc1 [TIA099, N-Benzyl-8-phenyl-9H-purin-6-amine]

Row | Compound | IC50 [nM]
39 | Cc1cccc(CN(C)c2ncnc3[nH]c(-c4ccc(-c5nnn[nH]5)cc4)cc23)c1 [FAB 02-14, 6-(4-(1H-Tetrazol-5-yl)phenyl)-N-methyl-N-(3-methylbenzyl)-7H-pyrrolo[2,3-d]pyrimidin-4-amine] | 3
40 | Cc1cccc(CN(C)c2ncnc3[nH]c(-c4ccc(C5(O)COC5)cc4)cc23)c1 [LR-2-060-1, 3-(4-(4-(Methyl(3-methylbenzyl)amino)-7H-pyrrolo[2,3-d]pyrimidin-6-yl)phenyl)oxetan-3-ol] | 0.3
41 | Cc1cccc(CN(C)c2ncnc3[nH]c(-c4ccc(C(O)(CO)CO)cc4)cc23)c1 [LR-2-060-2, 2-(4-(4-(Methyl(3-methylbenzyl)amino)-7H-pyrrolo[2,3-d]pyrimidin-6-yl)phenyl)propane-1,2,3-triol] | 3
42 | Cc1cccc(CN(C)c2ncnc3[nH]c(-c4cnn(C(C)C)c4)cc23)c1 [LR-2-108, 6-(1-Isopropyl-1H-pyrazol-4-yl)-N-methyl-N-(3-methylbenzyl)-7H-pyrrolo[2,3-d]pyrimidin-4-amine] | 0.4 ± 0.3
43 | Cc1cccc(CN(C)c2ncnc3[nH]c(-c4ccc(P(C)(C)=O)cc4)cc23)c1 [LR-2-116, Dimethyl(4-(4-(methyl(3-methylbenzyl)amino)-7H-pyrrolo[2,3-d]pyrimidin-6-yl)phenyl)phosphine oxide] | < 0.2
44 | CN(Cc1cccnc1)c1ncnc2[nH]c(-c3ccc(CO)cc3)nc12 [TIA03-016, N-Methyl-N-(pyridin-3-ylmethyl)-8-(4-(hydroxymethyl)phenyl)-9H-purin-6-amine] | 3.8 ± 0.4
45 | CN(Cc1ccccc1)c1ncnc2[nH]ccc12 [TIA04-067, N-Benzyl-N-methyl-7H-pyrrolo[2,3-d]pyrimidin-4-amine] | 68 ± 2
46 | Cc1cccc(CN(C)c2ncnc3[nH]ccc23)c1 [TIA04-069, N-Methyl-N-(3-methylbenzyl)-7H-pyrrolo[2,3-d]pyrimidin-4-amine] | 35
47 | OCc1ccc(-c2cc3c(N4CCCC4c4ccccc4)ncnc3[nH]2)cc1 (centres unmarked) [TIA05-178, (4-(4-(2-Phenylpyrrolidin-1-yl)-7H-pyrrolo[2,3-d]pyrimidin-6-yl)phenyl)methanol] | 0.7 ± 0.1
